Results taken from patent EP1285918A1, “C7 Ester substituted taxanes as antitumor agents” (Florida State University Research Foundation, Inc., priority 2001, dated 2003).
Where two headings read alike, the source gives them in different places.

Legend:
[1] = system: VM46 Human Colon Carcinoma Xenografts
How it was run: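 Female NCr-nude mice bearing subcutaneous VM46 colon carcinoma fragments, six per group, given compounds i.v. once on Day 1 at estimated MTD; vehicle i.v. for controls. Endpoints to Day 64: mean days of survival (tumor reaching 1.5 g), toxic deaths, survivors, complete/partial responses and stable disease.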

[2] = system: A375 Human Melanoma Xenografts; settings: A375; for Mean Score: tumor score 1 to 10, group mean
How it was run: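 Female NCr-nude mice carrying subcutaneous flank A375 implants (1 mm^3), six per group (Taxotere seven). Single i.v. dose on Day 1 at each agent's estimated MTD (Taxotere 70 mg/kg), vehicle i.v. for controls; study ended Day 60. Survival days counted to 2.0 g tumor; complete response = non-palpable tumor at study end, partial = smaller than on Day 1.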

[3] = system: DU 145 Human Prostate Carcinoma Xenografts; settings: DU145; for Mean Score: tumor score 1 to 10, group mean
How it was run: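 Male NCr-nude mice bearing subcutaneous DU145 fragments (five per group) received one i.v. dose at each agent's estimated MTD on Day 1, with vehicle controls; the study ran to Day 91. Survival was counted until tumour reached 1.5 g. Complete or partial response was scored by palpability or shrinkage below Day-1 size.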

[4] = system: Panc-1 Human Pancreatic Carcinoma Xenografts
How it was run: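 Female NCr-nude mice with subcutaneous flank Panc-1 fragments, six per group, dosed i.v. once on Day 1 at estimated MTD (Taxotere 70 mg/kg); vehicle controls. Survival taken as days until tumor reached 1.5 g; complete response = nonpalpable tumor at Day 63, partial = smaller than Day 1 size.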

[5] = system: A375 Human Melanoma Xenograft
Procedure: Female nu/nu mice (6-8 weeks of age; implanted subcutaneously with 1 mm^3 A375 melanoma fragments in the flank) were sorted into one control and four treatment groups of ten mice each (group mean tumor size of 96-98 mg). […] The study was terminated on Day 60.
The mean days of survival is the number of days after which a neoplasm reached a size of 2.0 g and the animal was euthanized. A complete response is obtained if the tumor is not palpable at the end of the study. A partial response is obtained if the tumor shrinks to a size smaller than its size on Day 1 of the study.

[6] = 15 mg/kg i.p. qd x 5, 6 mice/group, study end Day 64
[7] = 24 mg/kg i.v. qd x 1, 6 mice/group, study end Day 64
[8] = VM46, Taxol 24 mg/kg i.v. qd x 1, 6 mice, Day 64
[9] = Taxol i.p. 18 mg/kg qd x 5, 6 mice, Day 60
[10] = i.v. qd x 1 (mg/kg: Taxol 24, 1351 107.6, 1393 72.6, 1401 107.6, 1418 107.6, 1424 195.1, Taxotere 70), Day 60
[11] = Taxol i.p. 18 mg/kg qd x 5, 5 mice, Day 91
[12] = i.v. qd x 1 (mg/kg: Taxol 24, 1351 107.6, 1393 72.6, 1401 107.6, 1418 107.6, 1424 195.1), 5 mice/group, Day 91
[13] = 15 mg/kg i.p. qd x 5, 6 mice/group, study end Day 63
[14] = 24 mg/kg i.v. qd x 1 as two split doses, 6 mice/group, study end Day 63
[15] = 40 mg/kg single oral bolus, 10 mice/group, study end Day 60

Structure (SMILES): CC(=O)O[C@H]1C(=O)[C@@]2(C)[C@H]([C@H](OC(=O)c3ccccc3)[C@]3(O)C[C@H](OC(=O)[C@H](O)[C@@H](NC(=O)c4ccccc4)c4ccccc4)C(C)=C1C3(C)C)[C@]1(OC(C)=O)CO[C@@H]1C[C@@H]2O [Taxol, paclitaxel, reference compound]
- Complete Response [1, 6]: 0
- Mean Score [1, 6]: 1.8 ± 1.3
- Partial Response [1, 6]: 1
- Stable Disease [1, 6]: 0
- Survivors [1, 6]: 1
- Toxic Deaths [1, 6]: 3
- MDS (n) ([1]; 15 mg/kg i.p. qd x 5, 6 mice/group, study end Day 64, days until tumor reached 1.5 g): 36.1 ± 12.2 (2) days
- Complete Response [1, 7]: 0
- Mean Score [1, 7]: 3.8 ± 1.4
- Partial Response [1, 7]: 1
- Stable Disease [1, 7]: 1
- Survivors [1, 7]: 2
- Toxic Deaths [1, 7]: 0
- Partial Response [1, 8]: one
- Stable Disease [1, 8]: one
- toxicity ([1]; VM46, Taxol i.p. 15 mg/kg qd x 5): excessively toxic
- mortalities ([1]; VM46, Taxol i.p. 15 mg/kg qd x 5, 6 mice): three
- toxicity ([2]; Taxol i.p. 18 mg/kg qd x 5): highly toxic
- Complete Response [2, 9]: 0
- Partial Response [2, 9]: 0
- Stable Disease [2, 9]: 0
- Survivors [2, 9]: 0
- Mean Score ([2]; Taxol i.p. 18 mg/kg qd x 5): 0±0
- MDS (n) ([2]; i.v. qd x 1 (mg/kg: Taxol 24, 1351 107.6, 1393 72.6, 1401 107.6, 1418 107.6, 1424 195.1, Taxotere 70), 2.0 g cut-off, Day 60): 18.1 ± 0.6 (4) days
- Complete Response [2, 10]: 0
- Partial Response [2, 10]: 0
- Stable Disease [2, 10]: 0
- Survivors [2, 10]: 0
- Toxic Deaths [2, 10]: 2
- Mean Score ([2]; i.v. qd x 1 (mg/kg: Taxol 24, 1351 107.6, 1393 72.6, 1401 107.6, 1418 107.6, 1424 195.1, Taxotere 70)): 0.8 ± 0.3
- survival extension compared to Group 1 controls ([2]; i.v. qd x 1 (mg/kg: Taxol 24, 1393 72.6, 1418 107.6, Taxotere 70)): 26%
- increase in survival compared to Group 1 controls ([3]; Taxol 24 mg/kg i.v. qd x 1): 9%
- toxicity ([3]; Taxol i.p. 18 mg/kg qd x 5): highly toxic
- weight loss ([3]; Taxol i.p. 18 mg/kg qd x 5): more than 20%
- Complete Response [3, 11]: 0
- Partial Response [3, 11]: 0
- Stable Disease [3, 11]: 0
- Survivors [3, 11]: 0
- Mean Score ([3]; Taxol i.p. 18 mg/kg qd x 5): 0 ± 0
- MDS (n) ([3]; i.v. qd x 1 (mg/kg: Taxol 24, 1351 107.6, 1393 72.6, 1401 107.6, 1418 107.6, 1424 195.1), 5 mice/group, 1.5 g cut-off, Day 91): 37.4 ± 8.9 (3) days
- Complete Response [3, 12]: 0
- Partial Response [3, 12]: 0
- Stable Disease [3, 12]: 1
- Survivors [3, 12]: 1
- Mean Score ([3]; i.v. qd x 1 (mg/kg: Taxol 24, 1351 107.6, 1393 72.6, 1401 107.6, 1418 107.6, 1424 195.1)): 2 ± 1
- Complete Response [4, 13]: 0
- Mean Score [4, 13]: 1.2 ± 1.2
- Partial Response [4, 13]: 1
- Stable Disease [4, 13]: 0
- Survivors [4, 13]: 1
- Toxic Deaths [4, 13]: 4
- Complete Response [4, 14]: 0
- Mean Score [4, 14]: 2.2 ± 0.8
- Partial Response [4, 14]: 0
- Stable Disease [4, 14]: 1
- Survivors [4, 14]: 1
- Toxic Deaths [4, 14]: 1
- MDS (n) ([4]; 24 mg/kg i.v. qd x 1 as two split doses, 6 mice/group, study end Day 63, days until tumor reached 1.5 g): 34.7 ± 3.4 days
- Toxic Deaths ([4]; Panc-1, Taxol i.p. 15 mg/kg qd x 5, 6 mice): four
- Toxic Deaths ([4]; Panc-1, i.v. qd x 1 (mg/kg: Taxol 24, 1351 75.32, 1393 72.6, 1401 107.6, 1418 107.6, 1424 195.1), 6 mice/group): One
- MDS ([4]; Panc-1, i.v. qd x 1 (mg/kg: Taxol 24, 1351 75.32, 1393 72.6, 1401 107.6, 1418 107.6, 1424 195.1), 6 mice/group, 1.5 g cut-off, Day 63): 34.7 days
- Stable Disease ([4]; Panc-1, i.v. qd x 1 (mg/kg: Taxol 24, 1393 72.6, 1418 107.6), 6 mice/group, Day 63): one
- Complete Response [5, 15]: 0
- Partial Response [5, 15]: 1
- Stable Disease [5, 15]: 1
- Survivors [5, 15]: 2
- Toxic Deaths [5, 15]: 0
- MDS (n) ([5]; 40 mg/kg single oral bolus, 10 mice/group, study end Day 60, days until tumor reached 2.0 g): 23.7 ± 3.0 (8) days
- activity ([5]; A375, paclitaxel 40 mg/kg single oral bolus (Group 2)): not active
